Source: patent US20150111864A1, “CRYSTALLINE FORM OF A BETA-LACTAMASE INHIBITOR” (Cubist Pharmaceuticals, Inc., priority 2013, published 2015)
Entries after “also recorded” stand apart in the source; their conditions may differ. Counter-ions that a name gives are not always drawn.

Experiments:
Type in all cases: physicochemical
[1] = Static stability / storage of solid forms, checked by XRPD
Protocol: The samples were analysed by XRPD and, where appropriate, by DSC, TGA, VT-XRPD and ^1H NMR. Static stability at 25° C./96% RH and 40° C./75% RH was also investigated.
This material was analysed by XRPD TGA, GVS, and mDSC. Static stability experiments were carried out under ambient conditions and also at 25° C./96% RH and 40° C./75% RH. Finally this material was used as input material for the polymorphism screen (see Table 6).

[2] = Drying of solid forms, form checked by XRPD; details: for Filtration and air drying for 30 min: air drying 30 min
[3] = Gravimetric Vapour Sorption (GVS)
Protocol: Sorption isotherms were obtained using a SMS DVS Intrinsic moisture sorption analyser, controlled by DVS Intrinsic Control software v1.0.1.2 (or v 1.0.1.3). The sample temperature was maintained at 25° C. by the instrument controls. The humidity was controlled by mixing streams of dry and wet nitrogen, with a total flow rate of 200 ml/min The relative humidity was measured by a calibrated Rotronic probe (dynamic range of 1.0-100% RH), located near the sample. The weight change, (mass relaxation) of the sample as a function of % RH was constantly monitored by the microbalance (accuracy±0.005 mg). Typically 5-20 mg of sample was placed in a tared mesh stainless steel basket under ambient conditions. The sample was loaded and unloaded at 40% RH and 25° C. (typical room conditions). A moisture sorption isotherm was performed as outlined below (2 scans giving 1 complete cycle or 4 scans giving 2 complete cycles). The standard isotherm was performed at 25° C. at 10% RH intervals over a 0-90% RH range. Data analysis was undertaken in Microsoft Excel using DVS Analysis Suite v6.2 (or 6.1 or 6.0). Table 2 details the method parameters for SMS DVS intrinsic experiments.
The sample was recovered after completion of the isotherm and re-analysed by XRPD.

Aqueous solubility = assay: Aqueous solubility
XRPD after ball milling = assay: XRPD after ball milling
[4] = Static stability / storage of solid forms, checked by XRPD; remark: listed apart in the source

SMILES: NCCCc1nnc([C@@H]2CC[C@@H]3CN2C(=O)N3OS(=O)(=O)O)o1 [Form 7, (2S,5R)-2-(5-(3-aminopropyl)-1,3,4-oxadiazol-2-yl)-7-oxo-1,6-diazabicyclo[3.2.1]octan-6-yl hydrogen sulfate]
- Storage at 25° C./96% RH for 24 h ([1]; 25° C./96% RH): Conversion to Form 5
- Storage at 40° C./75% RH for 24 h ([1]; 40° C./75% RH): Conversion to Form 5
- Storage at ambient conditions for 24 h [1]: No change in form
- Filtration and air drying for 30 min [2]: No change in form

SMILES: NCCCc1nnc([C@@H]2CC[C@@H]3CN2C(=O)N3OS(=O)(=O)O)o1 [Amorphous Solid, (2S,5R)-2-(5-(3-aminopropyl)-1,3,4-oxadiazol-2-yl)-7-oxo-1,6-diazabicyclo[3.2.1]octan-6-yl hydrogen sulfate]
- Static Stability - 25° C./96% RH: time to conversion to Form 5 ([1]; 25° C./96% RH): Conversion to Form 5 within 15 minutes
- Static Stability - 40° C./75% RH: time to conversion to Form 5 ([1]; 40° C./75% RH): Conversion to Form 5 within 15 minutes
- Static Stability - ambient ([1]; ambient conditions, XRPD): Form 5 peaks observed after 36 days (although
- GVS (water uptake, in words) ([3]; 25° C., resulting solid was Form 5 by XRPD): Rapid uptake of water from 40-60%

SMILES: NCCCc1nnc([C@@H]2CC[C@@H]3CN2C(=O)N3OS(=O)(=O)O)o1 [Form 6, (2S,5R)-2-(5-(3-aminopropyl)-1,3,4-oxadiazol-2-yl)-7-oxo-1,6-diazabicyclo[3.2.1]octan-6-yl hydrogen sulfate]
- Storage at 25° C./96% RH for 24 h ([1]; 25° C./96% RH): Conversion to Form 5
- Storage at 40° C./75% RH for 24 h ([1]; 40° C./75% RH): Conversion to Form 5
- Filtration and air drying for 30 min [2]: No change in form

SMILES: NCCCc1nnc([C@@H]2CC[C@@H]3CN2C(=O)N3OS(=O)(=O)O)o1 [Form 9, (2S,5R)-2-(5-(3-aminopropyl)-1,3,4-oxadiazol-2-yl)-7-oxo-1,6-diazabicyclo[3.2.1]octan-6-yl hydrogen sulfate]
- Storage at 25° C./96% RH for 24 h ([1]; 25° C./96% RH): Conversion to Form 5
- Storage at 40° C./75% RH for 24 h ([1]; 40° C./75% RH): Conversion to Form 5
- Storage at ambient conditions for 24 h [1]: No change in form
- Drying in at 5 mmHg/25° C. overnight ([2]; 5 mmHg, 25° C., overnight): No change in form

SMILES: NCCCc1nnc([C@@H]2CC[C@@H]3CN2C(=O)N3OS(=O)(=O)O)o1 [Form 5, (2S,5R)-2-(5-(3-aminopropyl)-1,3,4-oxadiazol-2-yl)-7-oxo-1,6-diazabicyclo[3.2.1]octan-6-yl hydrogen sulfate]
- Stability relative to the amorphous solid form and other crystalline forms [1]: more stable than other crystalline forms; also recorded: improved stability
- Change of XRPD pattern over time (FIG. 2) ([1]; 25° C. and 40% relative humidity, t=0 and t=2 days): little to no change
- Storage at 25° C./96% RH for 1 week ([1]; 25° C./96% RH, 1 week): No change in form or crystallinity
- Storage at 40° C./75% RH for 1 week ([1]; 40° C./75% RH, 1 week): No change in form or crystallinity
- Relative stability of crystalline forms at ambient conditions ([1]; ambient conditions (25° C. and 40% RH)): most stable crystalline form
- XRPD post GVS ([3]; after GVS isotherm): Form 5. No change in crystallinity
- GVS Mass change ([3]; from 0-90% RH, 25° C.): Mass change of 9.73% from 0-90% RH
- Aqueous solubility (24 hrs at 25°): solid form of residue (Aqueous solubility): Residue was Form 5
- Aqueous solubility (24 hrs at 25°) (Aqueous solubility; pH 4.85): 13.1 mg/ml (pH 4.85).
- XRPD after ball milling (20 min) (XRPD after ball milling): No change in form but loss
- Storage in vacuum oven at 25° C. ([4]; 25° C., after 5 days): No change in form or crystallinity
- Storage in vacuum oven at 50° C. ([4]; 50° C., after 24 h): Sample almost completely amorphous
